Tested on: 323965-272-R-J2-PDC complex spheroid viability
Experiment: Anticancer human tumor 323965-272-R-J2-PDC patient-derived pancreatic carcinoma cell line growth inhibition [CLK]
Settings: for IC50: curve of first compound; for viability, T/C: stronger effect = lower value
Outline: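 Patient-derived tumor cells grown as complex spheroids with HUVEC endothelial cells and mesenchymal stem cells, treated with drug combinations. Concentrations descend in half-log steps from near clinical Cmax, or from 10 microM if Cmax unknown.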
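Further: spheroids exposed to agents for seven days before readout.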
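Wherever viability, T/C is given: percent of DMSO vehicle control wells so 100% = untreated growth.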

With `CCc1c2c(nc3ccc(O)cc13)-c1cc3c(c(=O)n1C2)COC(=O)[C@]3(O)CC` + CN1CCN(c2cc(C(=O)Nc3cc4cc(-c5cnn(C)c5)ccc4cn3)ccn2)CC1 the IC50 (second compound 0.0316 µM) was 7.63 nM, the IC50 (second compound 0.1 µM) was under 3.16 nM and the IC50 (second compound 0.316 µM) was under 3.16 nM. For the same molecule, the IC50 (second compound 1 µM) was under 3.16 nM, the IC50 (second compound 3.16 µM) was under 3.16 nM and the IC50 (second compound 10 µM) was under 3.16 nM. The viability, T/C (second compound 0.0316 µM, first compound 0.00316 µM) was 77.2%, the viability, T/C (second compound 0.0316 µM, first compound 0.01 µM) was 41.7% and the viability, T/C (second compound 0.0316 µM, first compound 0.0316 µM) was 28.6%. It also gave a viability, T/C (second compound 0.0316 µM, first compound 0.1 µM) of 27.2%, a viability, T/C (second compound 0.0316 µM, first compound 0.316 µM) of 25.7% and a viability, T/C (second compound 0.0316 µM, first compound 1 µM) of 24.1%. It also gave a viability, T/C (second compound 0.1 µM, first compound 0.00316 µM) of 42.6%, a viability, T/C (second compound 0.1 µM, first compound 0.01 µM) of 33.3% and a viability, T/C (second compound 0.1 µM, first compound 0.0316 µM) of 26%. It also gave a viability, T/C (second compound 0.1 µM, first compound 0.1 µM) of 24.7%, a viability, T/C (second compound 0.1 µM, first compound 0.316 µM) of 20.1% and a viability, T/C (second compound 0.1 µM, first compound 1 µM) of 19.7%. The viability, T/C (second compound 0.316 µM, first compound 0.00316 µM) was 22.2%, the viability, T/C (second compound 0.316 µM, first compound 0.01 µM) was 23.1% and the viability, T/C (second compound 0.316 µM, first compound 0.0316 µM) was 18.6%. The viability, T/C (second compound 0.316 µM, first compound 0.1 µM) was 20.3%, the viability, T/C (second compound 0.316 µM, first compound 0.316 µM) was 19.1% and the viability, T/C (second compound 0.316 µM, first compound 1 µM) was 6.86%. The viability, T/C (second compound 1 µM, first compound 0.00316 µM) was 3.79%, the viability, T/C (second compound 1 µM, first compound 0.01 µM) was 3.36% and the viability, T/C (second compound 1 µM, first compound 0.0316 µM) was 2.56%. For the same molecule, the viability, T/C (second compound 1 µM, first compound 0.1 µM) was 2.23%, the viability, T/C (second compound 1 µM, first compound 0.316 µM) was 1.14% and the viability, T/C (second compound 1 µM, first compound 1 µM) was 0.61%. For the same molecule, the viability, T/C (second compound 3.16 µM, first compound 0.00316 µM) was 4.21%, the viability, T/C (second compound 3.16 µM, first compound 0.01 µM) was 3.48% and the viability, T/C (second compound 3.16 µM, first compound 0.0316 µM) was 3.05%. It also gave a viability, T/C (second compound 3.16 µM, first compound 0.1 µM) of 1.79%, a viability, T/C (second compound 3.16 µM, first compound 0.316 µM) of 1.1% and a viability, T/C (second compound 3.16 µM, first compound 1 µM) of 0.61%. For the same molecule, the viability, T/C (second compound 10 µM, first compound 0.00316 µM) was 4.27%, the viability, T/C (second compound 10 µM, first compound 0.01 µM) was 6.63% and the viability, T/C (second compound 10 µM, first compound 0.0316 µM) was 2.33%. The viability, T/C (second compound 10 µM, first compound 0.1 µM) was 1.69%, the viability, T/C (second compound 10 µM, first compound 0.316 µM) was 0.96% and the viability, T/C (second compound 10 µM, first compound 1 µM) was 0.59%.

— PubChem BioAssay AID2060619 (Molecular Pharmacology Branch, DTP, NCI, 2025)
